Laboratory results: patent publication US20170166974A1, “METHOD FOR THE TREATMENT OF MULTIPLE MYELOMA” (Erasmus University Medical CEnter Rotherdam, priority 2014, published 2017)

Test system: multiple myeloma patients
Experiment: Survival analysis (PFS and OS) of multiple myeloma patients by molecular cluster, HOVON-65/GMMG-HD4 phase III trial, PAD vs VAD
Format: in vivo, human
Procedure: Survival analysis was performed on a group of 301 MM patients, treated with Bortezomib (treated with PAD, a combination of bortezomib, adriamycin, and dexamethasone)) or conventional therapy (treated with VAD, a combination of vincristine, adriamycin, and dexamethasone). The patient group was stratified into ten clusters (Table 1).
A total number of 833 patients were included in a large prospective, randomized, phase III trial (HOVON-65/GMMG-HD4). Patients were randomly assigned to three cycles of induction treatment with vincristine, doxorubicin, and dexamethasone (VAD), or Bortezomib, doxorubicin, and dexamethasone (PAD). Both groups received high-dose melphalan with autologous stem-cell rescue followed by maintenance treatment with thalidomide (group assigned to VAD) or Bortezomib (group assigned to PAD) for 2 years (Sonneveld et al., J. Clin. Oncol. Vol. 30, 24:2946-2955, 2012).
The gene expression dataset GSE19784 was used, derived from patients included in the HOVON-65/GMMG-HD4 trial (Broyl et al., Blood 2010 116:2543-2553). A total number of 320 patients were included in the molecular classification and follow-up data were available for 319 patients. Clusters with less than ten patients were not included in this study, the total number of patients was, therefore, 301 (Table 1). Progression-free survival (PFS) was calculated from randomization until progression, relapse or death, whichever came first. Patients who received a non-myeloablative allogeneic stem cell transplantation (AlloSCT) were censored at the date of AlloSCT. Overall survival (OS) was measured from randomization until death from any cause. Patients alive at the date of last contact were censored. The median follow-up was 41 months. Survival analysis was performed using the SPSS software. Kaplan
Meier analysis was performed using the log rank test to assess for significance in survival time between clusters.

CC(C)C[C@H](NC(=O)[C@H](Cc1ccccc1)NC(=O)c1cnccn1)B(O)O [Bortezomib]
median PFS (CD-2 cluster): 32 months
difference in median PFS, conventional vs Bortezomib (CTA cluster): no difference
median OS (MF cluster): 54 months
median PFS (MF cluster): 27 months
PFS longer than in conventional treatment group (MS cluster): 6 months
median OS (MS cluster): > 41 months
median PFS (Myeloid cluster): 32 months
median PFS (NF-κB cluster): 32 months
median OS (PR cluster): 22 months
median PFS (PR cluster): 19 months
difference in median PFS, conventional vs Bortezomib (hyperdiploid cluster): no difference
